Ten compounds from ChEMBL document CHEMBL3808320, “1,4-Diphenalkylpiperidines: A new scaffold for the design of potent inhibitors of the vesicular monoamine transporter-2” (Bioorg Med Chem Lett, 2016) can be followed below.

Synaptic vesicular amine transporter (Rattus norvegicus), sequence (Q01827 whole entry): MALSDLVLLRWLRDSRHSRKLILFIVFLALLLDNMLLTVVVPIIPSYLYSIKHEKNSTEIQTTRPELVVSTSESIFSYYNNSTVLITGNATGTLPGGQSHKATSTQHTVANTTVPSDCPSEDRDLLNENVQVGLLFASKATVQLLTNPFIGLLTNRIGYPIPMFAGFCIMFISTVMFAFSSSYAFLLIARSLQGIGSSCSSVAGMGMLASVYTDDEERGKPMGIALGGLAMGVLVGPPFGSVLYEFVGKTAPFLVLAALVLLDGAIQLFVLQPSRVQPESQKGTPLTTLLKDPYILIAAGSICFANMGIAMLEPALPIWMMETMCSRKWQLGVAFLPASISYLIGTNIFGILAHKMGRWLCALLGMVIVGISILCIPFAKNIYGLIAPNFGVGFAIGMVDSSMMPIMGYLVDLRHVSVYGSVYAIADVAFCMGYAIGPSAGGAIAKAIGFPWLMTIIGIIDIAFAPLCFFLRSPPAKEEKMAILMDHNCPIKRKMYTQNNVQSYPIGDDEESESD

The target of the first assay is T1, Synaptic vesicular amine transporter (Rattus norvegicus, UniProt Q01827). Put plainly: Displacement of [3H]DTBZ from VMAT2 in rat whole brain vesicles homogenate after 30 mins by liquid scintillation counting. It counts as tissue-based.
T1 sequence (Q01827 whole entry): as above
In turn, `COc1ccc(CCN2CCC(Cc3ccccc3)CC2)cc1` showed a Ki of 1900 nM. Compound `COc1ccc(CCC2CCN(CCc3ccc(OC)cc3)CC2)cc1` yielded a Ki of 2500 nM. `COc1ccccc1CCN1CCC(CCc2ccccc2)CC1` had a Ki of 260 nM. With `COc1cccc(CCN2CCC(CCc3ccccc3)CC2)c1`, the Ki was 270 nM.

Compound `COc1cccc(CCN2CCC(Cc3ccccc3)CC2)c1` displayed a Ki of 1500 nM. With `COc1ccccc1CCN1CCC(Cc2ccccc2)CC1`, the inhibition constant (Ki) was 2800 nM.

A further assay has as its target Synaptic vesicular amine transporter (Rattus norvegicus) (UniProt Q01827). Put plainly: Potency index, ratio of lobelane Ki to compound Ki for VMAT2 in rat striata vesicles homogenate.
As for `COc1cccc(CCN2CCC(CCc3ccccc3OC)CC2)c1`, the Ratio Ki worked out at 4. With `COc1ccccc1CCC1CCN(CCc2ccc(F)cc2)CC1`, the Ratio Ki worked out at 4. Same read-out and setting: the result for `COc1ccccc1CCC1CCN(CCc2ccccc2OC)CC1` reads 4.

The next assay shares this target. The experiment in a line: Potency index, ratio of lobelane Ki to compound Ki for VMAT2 in rat whole brain vesicles homogenate.
Consider `COc1cccc(CCN2CCC(CCc3ccccc3OC)CC2)c1`, for which the Ratio Ki amounted to 5. Take `COc1ccccc1CCC1CCN(CCc2ccccc2OC)CC1`: the Ratio Ki was 5.

The next assay deals with T1, Synaptic vesicular amine transporter. Put plainly: Inhibition of [3H]DA uptake at VMAT2 in rat striata vesicles homogenate after 8 mins by liquid scintillation counting.
Consider `c1ccc(CCC2CCN(CCc3ccccc3)CC2)cc1`, for which the inhibition constant (Ki) was determined as 120 nM.
